Data on 14 molecules can be found in ChEMBL document CHEMBL5321219, “Selective degradation of cellular BRD3 and BRD4-L promoted by PROTAC molecules in six cancer cell lines” (Eur J Med Chem, 2023).

Molecules are shown by their SMILES. pIC50, pKi: −log10 of the molar value. Active and inactive are the calls of the source. No cut-off for these calls is given here.

One assay has as its system MV4-11. As to the kind of experiment: Antiproliferative activity against human MV4-11 cells assessed as cell growth inhibition measured after 3 days by CellTitre-Glo assay. The assay is classed as functional, cell-based. As to conditions: MV4-11, 72 h.
Assay [1] has as its target T1, Bromodomain-containing protein 3 (Homo sapiens, UniProt Q15059). As to the kind of experiment: Binding affinity to recombinant human BRD3 BD2 (306 to 417 residues) assessed as inhibition constant by fluorescence polarization binding assay. For orientation: In fluorescence polarisation assays a small probe gives low polarisation when free and higher when bound to something large.

The subject of a further assay is MM1.S. Nature of the assay: Antiproliferative activity against human MM1.S cells assessed as cell growth inhibition measured after 4 days by CellTitre-Glo assay. It counts as functional, cell-based. As to conditions: 96 h.
The target in assay [2] is T1, Bromodomain-containing protein 3. As to the kind of experiment: Binding affinity to recombinant human BRD3 BD1 (24 to 144 residues) assessed as inhibition constant by fluorescence polarization binding assay.
Assay [3] has as its target T2, Protein cereblon/Bromodomain-containing protein 3 (Homo sapiens) (UniProt Q15059+Q96SW2). As to the kind of experiment: PROTAC activity at CRBN/BRD3 in human MM1.S cells assessed as induction of protein degradation at 2 to 10 nM measured after 24 hrs by Western blot analysis. It counts as cell-based. As to conditions: dose 2-10 nM. (In general: A western blot detects proteins with antibodies after separation by electrophoresis.)

In assay [4] the target is T3, Protein cereblon/Bromodomain-containing protein 4 (Homo sapiens) (UniProt O60885+Q96SW2). As to the kind of experiment: PROTAC activity at CRBN/BRD4-L in human MM1.S cells assessed as induction of protein degradation at 2 to 10 nM measured after 24 hrs by Western blot analysis. The assay is classed as cell-based. The note with it: dose 2-10 nM.
T3 sequence (Q96SW2 whole entry, looked up, other chains not shown): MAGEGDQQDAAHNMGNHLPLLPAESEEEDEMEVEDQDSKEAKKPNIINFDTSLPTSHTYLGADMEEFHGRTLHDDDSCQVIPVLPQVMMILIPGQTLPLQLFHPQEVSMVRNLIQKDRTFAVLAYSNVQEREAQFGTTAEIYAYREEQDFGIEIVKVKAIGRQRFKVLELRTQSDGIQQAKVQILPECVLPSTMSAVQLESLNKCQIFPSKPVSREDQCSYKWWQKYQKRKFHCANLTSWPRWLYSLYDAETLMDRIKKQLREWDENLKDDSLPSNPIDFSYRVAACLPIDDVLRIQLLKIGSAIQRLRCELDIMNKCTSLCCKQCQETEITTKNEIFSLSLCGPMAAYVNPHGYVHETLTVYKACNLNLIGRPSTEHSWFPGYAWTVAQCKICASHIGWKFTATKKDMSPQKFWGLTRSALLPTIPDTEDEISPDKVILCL
In assay [5] the target is T3, Protein cereblon/Bromodomain-containing protein 4 (Homo sapiens). Nature of the assay: PROTAC activity at CRBN/BRD4-S in human MM1.S cells assessed as induction of protein degradation at 2 to 10 nM measured after 24 hrs by Western blot analysis. It counts as cell-based. As to conditions: dose 2-10 nM.
For assay [6], the target named is Protein cereblon/Bromodomain-containing protein 2 (Homo sapiens) (UniProt P25440+Q96SW2). As to the kind of experiment: PROTAC activity at CRBN/BRD2 in human MM1.S cells assessed as induction of protein degradation at 2 to 10 nM measured after 24 hrs by Western blot analysis. The note with it: dose 2-10 nM. The assay is classed as cell-based.
Sequence of Protein cereblon/Bromodomain-containing protein 2 (Homo sapiens) (P25440 whole entry, looked up): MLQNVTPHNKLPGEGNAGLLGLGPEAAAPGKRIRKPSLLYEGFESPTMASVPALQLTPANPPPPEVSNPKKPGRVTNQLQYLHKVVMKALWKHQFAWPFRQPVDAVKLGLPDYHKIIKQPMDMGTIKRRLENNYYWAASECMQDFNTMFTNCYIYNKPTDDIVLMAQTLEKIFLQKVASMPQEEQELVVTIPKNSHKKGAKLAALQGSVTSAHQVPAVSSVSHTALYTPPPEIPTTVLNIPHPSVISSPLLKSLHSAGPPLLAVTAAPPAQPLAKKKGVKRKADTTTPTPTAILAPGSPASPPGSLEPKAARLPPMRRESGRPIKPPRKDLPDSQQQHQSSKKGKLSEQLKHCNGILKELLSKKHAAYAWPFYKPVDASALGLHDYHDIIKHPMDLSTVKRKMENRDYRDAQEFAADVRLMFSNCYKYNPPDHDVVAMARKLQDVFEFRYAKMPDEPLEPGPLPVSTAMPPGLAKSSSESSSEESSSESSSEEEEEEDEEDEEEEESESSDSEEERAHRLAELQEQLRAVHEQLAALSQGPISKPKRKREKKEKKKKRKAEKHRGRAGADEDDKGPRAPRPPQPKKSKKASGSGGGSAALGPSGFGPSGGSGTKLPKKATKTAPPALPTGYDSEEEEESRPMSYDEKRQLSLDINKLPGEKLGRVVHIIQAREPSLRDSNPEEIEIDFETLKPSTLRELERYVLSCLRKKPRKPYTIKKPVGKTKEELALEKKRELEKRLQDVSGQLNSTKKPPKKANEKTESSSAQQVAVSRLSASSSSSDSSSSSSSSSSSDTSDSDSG
Sequence of Protein cereblon/Bromodomain-containing protein 2 (Homo sapiens) (Q96SW2 whole entry, looked up): as the sequence (Q96SW2 whole entry, looked up, other chains not shown) above
A further assay concerns HepG2. Nature of the assay: Antiproliferative activity against human HepG2 cells assessed as cell growth inhibition measured after 4 days by CCK-8 assay. It counts as functional, cell-based. The note with it: HepG2, 96 h.
In the next assay the test system is A549. Nature of the assay: Antiproliferative activity against human A549 cells assessed as cell growth inhibition measured after 4 days by CCK-8 assay. It counts as functional, cell-based. As to conditions: A549, 96 h. In general terms: Formazan colour is commonly taken as a measure of viable cells.
Another assay deals with HGC-27. Nature of the assay: Antiproliferative activity against human HGC-27 cells assessed as cell growth inhibition measured after 4 days by CCK-8 assay. The assay is classed as functional, cell-based. As to conditions: HGC-27, 96 h.
Another assay has as its system HeLa. Nature of the assay: Antiproliferative activity against human HeLa cells assessed as cell growth inhibition measured after 4 days by CCK-8 assay. The assay is classed as functional, cell-based. As to conditions: 96 h.
For a further assay, the system named is MCF7. Nature of the assay: Antiproliferative activity against human MCF7 cells assessed as cell growth inhibition measured after 4 days by CCK-8 assay. It counts as functional, cell-based. The note with it: MCF7, 96 h.
For assay [7], the target named is T2, Protein cereblon/Bromodomain-containing protein 3 (Homo sapiens). Nature of the assay: PROTAC activity at CRBN/BRD3 in human MM1.S cells assessed as induction of protein degradation at 2 nM measured after 24 hrs by Western blot analysis. It counts as cell-based.
The target in assay [8] is T3, Protein cereblon/Bromodomain-containing protein 4 (Homo sapiens). As to the kind of experiment: PROTAC activity at CRBN/BRD4-L in human MM1.S cells assessed as induction of protein degradation at 2 nM measured after 24 hrs by Western blot analysis. It counts as cell-based.

T2 sequence (Q15059 2-726 limits assumed): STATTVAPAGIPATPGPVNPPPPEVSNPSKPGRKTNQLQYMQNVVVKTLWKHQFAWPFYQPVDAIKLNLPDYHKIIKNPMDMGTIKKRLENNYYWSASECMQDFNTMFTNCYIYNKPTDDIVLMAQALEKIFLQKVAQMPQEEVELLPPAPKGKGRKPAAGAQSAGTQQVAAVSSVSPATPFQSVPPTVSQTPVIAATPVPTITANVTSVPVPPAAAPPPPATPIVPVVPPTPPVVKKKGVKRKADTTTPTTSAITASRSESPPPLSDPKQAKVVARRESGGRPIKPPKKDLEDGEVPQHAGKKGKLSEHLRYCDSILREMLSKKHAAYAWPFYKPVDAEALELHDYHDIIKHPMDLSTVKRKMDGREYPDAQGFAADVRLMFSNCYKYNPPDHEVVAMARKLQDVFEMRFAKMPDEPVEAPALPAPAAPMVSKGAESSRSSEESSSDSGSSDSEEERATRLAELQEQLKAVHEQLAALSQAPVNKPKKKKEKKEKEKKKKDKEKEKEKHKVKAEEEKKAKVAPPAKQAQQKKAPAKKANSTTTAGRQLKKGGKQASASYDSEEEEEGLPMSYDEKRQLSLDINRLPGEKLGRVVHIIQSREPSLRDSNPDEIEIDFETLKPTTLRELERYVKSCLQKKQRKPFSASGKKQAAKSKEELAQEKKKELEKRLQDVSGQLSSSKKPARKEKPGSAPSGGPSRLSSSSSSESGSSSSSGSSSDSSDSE
T2 sequence (Q96SW2 whole entry partner): as the sequence (Q96SW2 whole entry, looked up, other chains not shown) above
T1 sequence (Q15059 whole entry, the tested form may be a part): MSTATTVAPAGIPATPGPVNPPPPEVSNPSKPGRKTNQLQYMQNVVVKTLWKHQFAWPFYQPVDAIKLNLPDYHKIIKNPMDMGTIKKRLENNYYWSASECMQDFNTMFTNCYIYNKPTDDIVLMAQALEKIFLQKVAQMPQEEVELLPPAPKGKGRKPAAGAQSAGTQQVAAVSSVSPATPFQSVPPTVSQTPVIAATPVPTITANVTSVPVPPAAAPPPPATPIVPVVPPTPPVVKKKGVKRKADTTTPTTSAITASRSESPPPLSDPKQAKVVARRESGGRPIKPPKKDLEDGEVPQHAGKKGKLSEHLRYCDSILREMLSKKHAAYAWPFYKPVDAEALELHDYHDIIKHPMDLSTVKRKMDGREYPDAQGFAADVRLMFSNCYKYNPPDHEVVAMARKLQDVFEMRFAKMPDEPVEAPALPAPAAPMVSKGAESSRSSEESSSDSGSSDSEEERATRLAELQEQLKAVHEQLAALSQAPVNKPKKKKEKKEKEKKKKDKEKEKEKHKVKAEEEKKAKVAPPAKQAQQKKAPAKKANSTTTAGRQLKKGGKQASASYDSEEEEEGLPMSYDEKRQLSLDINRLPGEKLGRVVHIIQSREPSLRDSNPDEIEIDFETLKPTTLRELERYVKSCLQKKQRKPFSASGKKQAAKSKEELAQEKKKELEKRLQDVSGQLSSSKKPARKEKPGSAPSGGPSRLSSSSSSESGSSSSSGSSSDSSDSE

Consider `CNCc1ccc(-c2ccc3c(c2)C(Nc2ccc(Cl)cc2)CCc2nnc(C)n2-3)cc1` (stereo not given), for which the pIC50 (as a rule, the negative decadic logarithm of the IC50, by convention in mol/L) with MV4-11 was 5.91; with MM1.S it was 5.42. Further, the figures for the pKi in assay [1] and in assay [2] were 7.33 and 6.57, respectively.
Consider `Cc1nnc2n1-c1ccc(-c3cnn(CC(=O)NCCCCC#Cc4cccc5c4CN(C4CCC(=O)NC4=O)C5=O)c3)cc1C(Nc1ccc(Cl)cc1)CC2` (stereo not given), for which the result in [3], in assay [4], in assay [5] and in [6] was inactive. In addition, the results for the pIC50 in the assay with MV4-11 and in the assay on MM1.S were 6.27 and 5.27, respectively. Also, the pKi (in general, the negative decadic logarithm of the Ki, by convention in mol/L) is 8.18 in assay [1] and 7.53 in assay [2].
Take `Cc1nnc2n1-c1ccc(-c3ccc(CNCCCCc4cccc5c4CN(C4CCC(=O)N(C)C4=O)C5=O)cc3)cc1C(Nc1ccc(Cl)cc1)CC2` (stereo not given): the pIC50 was 5.12 with HepG2; 5.07 in the assay with A549; 5.22 with HGC-27; 6.23 with MV4-11; 5.58 in the assay on MM1.S; 5.49 with HeLa. Moreover, in the assay on MCF7, the pIC50 is 5.32. Also, the pKi was 8.65 in [1] and 7.88 in assay [2].
As to `Cc1nnc2n1-c1ccc(-c3ccc(CNCCCCCC#Cc4cccc5c4CN(C4CCC(=O)NC4=O)C5=O)cc3)cc1C(Nc1ccc(Cl)cc1)CC2` (stereo not given), the pIC50 in the assay with MV4-11 was 7.70; in the assay on MM1.S it was 6.81. Moreover, the pKi in assay [1] was 8.23; in assay [2] it was 7.82. For the same molecule, the result in [7] and in assay [8] was Active.
Turning to `Cc1nnc2n1-c1ccc(-c3ccc(CNCCCCCCCc4cccc5c4CN(C4CCC(=O)NC4=O)C5=O)cc3)cc1C(Nc1ccc(Cl)cc1)CC2` (stereo not given), the values for the pIC50 in the assay with MV4-11 and with MM1.S were 9.12 and 7.56, respectively. Also, the figures for the pKi in assay [1] and in [2] were 8.65 and 8.10, respectively. The outcome in [7] and in assay [8] was Active.
For the molecule `Cc1nnc2n1-c1ccc(-c3ccc(CNCCC#Cc4cccc5c4CN(C4CCC(=O)NC4=O)C5=O)cc3)cc1C(Nc1ccc(Cl)cc1)CC2` (stereo not given), the results for the pIC50 in the assay on MV4-11 and in the assay on MM1.S were 5.81 and 5.47, respectively. Further, the figures for the pKi in assay [1] and in assay [2] were 8.24 and 7.65, respectively.
For the molecule `Cc1nnc2n1-c1ccc(-c3ccc(CNCCCc4cccc5c4CN(C4CCC(=O)NC4=O)C5=O)cc3)cc1C(Nc1ccc(Cl)cc1)CC2` (stereo not given), the result in [3], in assay [4], in assay [5] and in assay [6] was inactive. The pIC50 is 5.99 with MV4-11 and 5.55 in the assay on MM1.S. Also, the figures for the pKi in assay [1] and in assay [2] were 8.61 and 7.73, respectively.
`Cc1nnc2n1-c1ccc(-c3ccc(CNCCCCC#Cc4cccc5c4CN(C4CCC(=O)NC4=O)C5=O)cc3)cc1C(Nc1ccc(Cl)cc1)CC2` (stereo not given): the values for the pIC50 in the assay on MV4-11 and with MM1.S were 7.15 and 6.80, respectively. Besides, the pKi in assay [1] is 8.33; in assay [2] it was 7.92.
For `Cc1nnc2n1-c1ccc(-c3cnn(CC(=O)NCCCCCC#Cc4cccc5c4CN(C4CCC(=O)NC4=O)C5=O)c3)cc1C(Nc1ccc(Cl)cc1)CC2` (stereo not given), the outcome in [3], in assay [4], in assay [5] and in assay [6] was inactive. The pIC50 in the assay on MV4-11 is 6.75; in the assay on MM1.S it was 5.80. The pKi in assay [1] was 8.20; in assay [2] it was 7.48.
As to `Cc1nnc2n1-c1ccc(-c3ccc(CNCC#Cc4cccc5c4CN(C4CCC(=O)NC4=O)C5=O)cc3)cc1C(Nc1ccc(Cl)cc1)CC2` (stereo not given), the values for the pIC50 in the assay on MV4-11 and with MM1.S were 6.16 and 5.58, respectively. In addition, the pKi was 8.32 in assay [1] and 7.61 in [2].
As to `Cc1nnc2n1-c1ccc(-c3ccc(CNCCCCCCc4cccc5c4CN(C4CCC(=O)NC4=O)C5=O)cc3)cc1C(Nc1ccc(Cl)cc1)CC2` (stereo not given), the results for the pIC50 with MV4-11 and in the assay on MM1.S were 9.40 and 7.50, respectively. Also, the pKi is 8.67 in [1] and 8.17 in assay [2]. In addition, the outcome in assay [7] and in assay [8] was Active.
As for `Cc1nnc2n1-c1ccc(-c3ccc(CNCCCCCc4cccc5c4CN(C4CCC(=O)NC4=O)C5=O)cc3)cc1C(Nc1ccc(Cl)cc1)CC2` (stereo not given), the pIC50 with MV4-11 was 6.63; with MM1.S it was 6.09. Moreover, the results for the pKi in [1] and in assay [2] were 8.27 and 7.81, respectively. In addition, the outcome in assay [7] and in [8] was Active.
On to `Cc1nnc2n1-c1ccc(-c3cnn(CC(=O)NCCCC#Cc4cccc5c4CN(C4CCC(=O)NC4=O)C5=O)c3)cc1C(Nc1ccc(Cl)cc1)CC2` (stereo not given), for which the result in assay [3], in assay [4], in assay [5] and in assay [6] was inactive. Besides, the pIC50 in the assay on MV4-11 is 5.53; with MM1.S it was 5.09. The figures for the pKi in assay [1] and in assay [2] were 8.30 and 7.42, respectively.
On to `Cc1nnc2n1-c1ccc(-c3ccc(CNCCCC#Cc4cccc5c4CN(C4CCC(=O)NC4=O)C5=O)cc3)cc1C(Nc1ccc(Cl)cc1)CC2` (stereo not given), for which the pIC50 is 6.19 in the assay with MV4-11 and 5.88 in the assay on MM1.S. The pKi in [1] is 8.30; in assay [2], 7.32.
